Experiment in all cases: Gene expression in human chondrocyte cells (SW1353), quantitative real-time PCR
Holding throughout (assay type): cell-based
Conditions in all cases: 12.5 μM compound, SW1353 chondrocytes, IL-1β treated
Background: In qPCR the cycle at which signal appears reflects the starting amount.

The test system of one assay is Human MMP-3. The protocol:
The cells were treated with IL-1β, which is one of the natural mediators that induce cartilage breakdown and is detected in substantial amounts in osteoarthritic cartilage tissues and cells derived thereof. Treatment of cells with IL-1β triggers the expression of genes that are involved in catabolic events, such as MMPs. Also, treatment of the cells with IL-1β reduces the collagen expression levels (compared to untreated cells)
Chondrocytes (SW1353; purchased from the […] [ATCC]) were grown in cell culture medium according to the instructions from ATCC. For experimental treatments, cells were seeded into 6-well plates and cultured for two days until they reached confluence. Total cellular RNA was extracted from cultured cells and reverse-transcribed as described by Richard et al. Mol. Nutr. Food Res. 49, 431-442, 2005. Expression levels of distinct genes were determined by quantitative real-time PCR as described in Richard et al. Mol. Nutr. Food Res. 49, 431-442, 2005.

The test system of a further assay is Human MMP-1. The protocol: (§1) The cells were treated with IL-1β, which is one of the natural mediators that induce cartilage breakdown and is detected in substantial amounts in osteoarthritic cartilage tissues and cells derived thereof. Treatment of cells with IL-1β triggers the expression of genes that are involved in catabolic events, such as MMPs.
(§2) Chondrocytes (SW1353; purchased from the […] [ATCC]) were grown in cell culture medium according to the instructions from ATCC. For experimental treatments, cells were seeded into 6-well plates and cultured for two days until they reached confluence. Total cellular RNA was extracted from cultured cells and reverse-transcribed as described by Richard et al. Mol. Nutr. […] Expression levels of distinct genes were determined by quantitative real-time PCR as described in Richard et al. Mol. Nutr.

Another assay concerns Human MMP-13. The protocol: as §1, §2
For another assay, the system named is Human collagen II. The protocol:
as §1, §2

The next assay deals with Aggrecan. The protocol: as §1, §2
In the next assay the test system is Human collagen I. How it is done: as §1, §2

On to `COc1c(C(C)C)cc2c(c1O)[C@@]1(C(=O)O)CCCC(C)(C)[C@@H]1CC2` [Carnosic acid-12-methyl ether (XII), Carnosic acid 12-methylether], for which, in the assay on Human MMP-3, the “Human MMP-3 gene expression level relative to cells treated without the compound” value is recorded as 69%. In addition, the “Human MMP-1 gene expression level relative to cells treated without the compound” value with Human MMP-1 is 94%. Also, in the assay with Human MMP-13, the “Human MMP-13 gene expression level relative to cells treated without the compound” value is 60%. Moreover, in the assay with Human collagen II, the “Human collagen II gene expression level relative to cells treated without the compound” value came out at 139%. In the assay with Aggrecan, the “Aggrecan gene expression level relative to cells treated without the compound” value is on record as 123%.
Regarding `CC(C)c1cc2c(c(O)c1O)C1=C(CC2)C(C)(C)CCC1=O` [Sageone (VII), Sageone], the “Human MMP-3 gene expression level relative to cells treated without the compound” value with Human MMP-3 is 112%. Also, in the assay on Human MMP-1, the “Human MMP-1 gene expression level relative to cells treated without the compound” value stood at 3%. The “Human MMP-13 gene expression level relative to cells treated without the compound” value with Human MMP-13 is reported as 36%. Besides, in the assay on Human collagen I, the “Human collagen I gene expression level relative to cells treated without the compound” value is on record as 120%. For the same compound, in the assay on Aggrecan, the “Aggrecan gene expression level relative to cells treated without the compound” value is on record as 152%.
